Laboratory results: patent US8633203B2, “Use of pterocarpans as active anti-cellulite ingredients” (Symrise AG, priority 2009, dated 2014)

Assays:
lipoprotein lipase (LPL) = biological target: T1, lipoprotein lipase (LPL) (Mus musculus, UniProt P11152); test: inhibition of lipoprotein lipase from differentiated 3T3-L1 cells, MUF oleate hydrolysis; type: biochemical; conditions: LPL from 3T3-L1 cells; MUF oleate substrate; mean values of at least 2 independent tests
T1 construct: endogenous in cells; host or cells: differentiated 3T3-L1 cells (mouse); heparin-released supernatant
T1 sequence (P11152 28-474): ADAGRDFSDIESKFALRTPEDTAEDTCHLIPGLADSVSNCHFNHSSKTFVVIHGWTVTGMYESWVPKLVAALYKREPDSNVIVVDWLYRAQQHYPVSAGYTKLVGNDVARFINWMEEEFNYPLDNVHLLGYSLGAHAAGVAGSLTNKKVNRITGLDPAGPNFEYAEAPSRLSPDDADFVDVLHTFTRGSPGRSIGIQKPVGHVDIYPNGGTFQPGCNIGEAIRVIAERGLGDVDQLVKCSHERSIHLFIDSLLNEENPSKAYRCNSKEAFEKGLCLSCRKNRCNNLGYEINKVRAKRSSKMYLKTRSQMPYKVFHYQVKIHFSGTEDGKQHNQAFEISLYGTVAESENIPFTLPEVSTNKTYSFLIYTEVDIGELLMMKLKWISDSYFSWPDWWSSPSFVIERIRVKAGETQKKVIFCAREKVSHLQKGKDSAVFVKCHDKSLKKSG
Description: The results of the inhibition of the PL are used as a preliminary test and are confirmed on LPL. To obtain LPL, 3T3-L1 cells (mouse embryonal fibroblast adipocyte cell line) are seeded in a 6-well plate with collagen I-coating in a concentration of 3×10^5 cells/well. The cultivation and differentiation of the cells takes place analogously to the details in Example 2 (adipogenesis assay). During the differentiation LPL, is increasingly expressed. The LPL is present in a membrane-bound state and is released by one hour incubation with heparin solution at 2-8° C. in the supernatant of the cells.
The LPL thus obtained, in the presence of test substances in different use concentrations, has methylumbelliferyl oleate (MUF oleate) added as the substrate. Fluorescent methylumbelliferyl (MUF) is produced by hydrolysis of the MUF oleate by LPL and is quantified. The inhibition of the hydrolysis of the MUF oleate is a measure of the inhibition of the activity of the LPL and therefore the lipogenesis.
The IC50 is calculated from the inhibition of the LPL [%] in a series of dilutions of tested samples. This is the concentration at which the activity of the LPL and therefore the lipogenesis is 50% inhibited.

3T3-L1-cells = test: adipogenesis inhibition assay (Nile Red lipid staining); type: cell-based, mouse; conditions: mean values of at least 2 independent tests
Description: 3T3-L1-cells (mouse embryonal fibroblast-like adipocyte cell line) are seeded in a 48-well plate with collagen I-coating in a concentration of 3×10^4 cells/well. After 72 h cultivation at 37° C. and 5% CO2 in DMEM (Dulbecco's Modified Eagle Medium), enriched with 10% calf serum, various concentrations of the test substances in DMEM, enriched with 10% foetal calf serum and to which are added 1 μg/ml insulin, 0.25 μM dexamethasone and 0.5 mM IBMX (3-isobutyl-1-methylxanthine), are added and incubated for a further 48 h. A media change takes place, in that DMEM, enriched with 10% foetal calf serum and with 1 μg/ml insulin added, are applied. After renewed cultivation for 48 h, a further media change takes place, in which DMEM, enriched with 10% foetal calf serum, is applied.
After a further incubation for 72 h, the intracellularly stored lipids are quantified as a measure for the differentiation of the cells by measuring the fluorescence after dyeing of the lipids with the fluorescent dye Nile Red.
The inhibition of the adipogenesis in the presence of the test substances is calculated according to the following equation: […]
The IC50 is calculated from the adipogenesis inhibition (%) in a series of dilutions of tested samples. This is the concentration at which the adipogenesis is 50% inhibited.

[1] = tested on: Primary human subcutaneous preadipocytes differentiated to adipocytes; test: lipolysis assay, free glycerol in supernatant; type: cell-based; conditions: for Activity with regard to lipolysis (neither inhibited nor stimulated): max. use concentration 25 ppm, about 20 hours incubation; for IC50 inhibition of the lipolysis: mean values of at least 2 independent tests
Description: Primary human subcutaneous preadipocytes (Lonza) are seeded in a 96-well microtiter plate at a concentration of 1×10^4 cells/well. Until confluence is reached, cultivation takes place at 37° C. and 5% CO2 in DMEM, enriched with 10% foetal calf serum. To induce the differentiation of preadipocytes to adipocytes there follows the addition DMEM enriched with 10% foetal calf serum, with added 10 μg/ml insulin, 1 μM dexamethasone and 1 mM IBMX (3-isobutyl-1-methylxanthine). A cultivation for 14 to 20 days follows. During this time, the medium can optionally be replaced by DMEM, enriched with 10% foetal calf serum.
Various concentrations of the test substances are applied to the cells in DMEM, with bovine serum albumen added. After about 20 hours of incubation, the quantification takes place of free glycerol in the supernatant of the cells, which is discharged therefrom after hydrolysis of triglycerides in the cells and is a measure of the lipolysis of the cells. The quantification of the free glycerol is carried out based on an enzymatic method with a free glycerol reagent.
The stimulation of the lipolysis in the presence of test substances is calculated according to the following equation: […]
The […] is calculated from the lipolysis stimulation [%] in a series of dilutions of tested samples. This is the concentration at which the lipolysis is 50% stimulated.
The inhibition of the lipolysis in the presence of test substances is calculated according to the following equation: […]
The IC50 is calculated from the lipolysis inhibition [%] in a series of dilutions of tested samples. This is the concentration at which the lipolysis is 50% inhibited.

pancreatic lipase (PL) = biological target: T2, pancreatic lipase (PL) (Sus scrofa, UniProt P00591); test: inhibition of pancreatic lipase, MUF oleate hydrolysis; type: biochemical; conditions: MUF oleate substrate; mean values of at least 2 independent tests
T2 construct: purchased Sigma-Aldrich
T2 sequence (P00591 1-450): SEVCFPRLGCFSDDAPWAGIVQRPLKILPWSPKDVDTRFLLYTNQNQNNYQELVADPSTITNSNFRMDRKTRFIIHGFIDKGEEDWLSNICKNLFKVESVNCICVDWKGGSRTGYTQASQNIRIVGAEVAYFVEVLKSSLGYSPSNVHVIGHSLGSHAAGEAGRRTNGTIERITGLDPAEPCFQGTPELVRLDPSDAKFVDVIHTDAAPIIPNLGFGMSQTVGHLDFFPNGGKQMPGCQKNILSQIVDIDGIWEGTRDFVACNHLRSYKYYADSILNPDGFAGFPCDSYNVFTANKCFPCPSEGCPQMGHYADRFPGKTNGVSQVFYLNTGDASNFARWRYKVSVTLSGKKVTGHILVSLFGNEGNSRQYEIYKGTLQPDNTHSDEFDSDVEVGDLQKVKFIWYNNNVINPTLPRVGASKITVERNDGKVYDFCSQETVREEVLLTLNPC
Excerpt: Lipogenesis is taken to mean the storing of triglycerides in adipocytes. The inhibition of this storage can take place by means of the inhibition of the activity of extracellular lipoprotein lipase (LPL) in that the hydrolysis of extracellular triglycerides and therefore the absorption of free fatty acids by adipocytes is reduced. As a preliminary test, the inhibition of pancreatic lipase (PL) is investigated.
PL (Sigma-Aldrich), in the presence of test substances in different use concentrations has methylumbelliferyl oleate (MUF oleate) added as a substrate. Fluorescent methylumelliferon (MUF), is produced by hydrolysis of the MUF oleate by PL and is quantified. The inhibition of the hydrolysis of the MUF oleate is a measure of the inhibition of activity of the PL.
The IC50 is calculated from the inhibition of the PL [%] in a series of dilutions of tested samples. This is the concentration, at which the activity of the PL is 50% inhibited.

fat cells = test: own investigations on differentiation of fat cells; type: cell-based; conditions: depending on the use concentration
[2] = phototoxic potential, photo-irritation factor according to OECD guideline 432; conditions: own investigations
Description: The phototoxic potential is expressed as a photo-irritation factor (PIF). […] It applies here that with a PIF of less than 2, no phototoxic potential exists while a phototoxic potential exists at a PIF of more than 5. With a PIF of between 2 and 5, there is possibly a phototoxic potential.

IC50 inhibition of the LPL (lipoprotein lipase (LPL)) | IC50 inhibition of the PL (pancreatic lipase (PL)) | Compound | IC50 adipogenesis inhibition (3T3-L1-cells) | Activity with regard to lipolysis (neither inhibited nor stimulated) [1] | other results
67.0 ppm | 350 ppm | COc1ccc2c(c1)OC[C@H]1c3ccccc3O[C@@H]21 [3-methoxypterocarpan] | 50.9 ppm | No activity (25 ppm) | 
 |  | COc1ccc(-c2coc3cc(O)ccc3c2=O)cc1 [Formononetin, reference compound] |  |  | IC50 inhibition of the lipolysis [1]: 53.7 ppm
104.2 ppm | 147 ppm | Oc1ccc2c(c1)OC[C@H]1c3cc4c(cc3O[C@@H]21)OCO4 [Maackiain] | 25.5 ppm | No activity (25 ppm) | 
788 ppm | 425 ppm | COc1ccc2c(c1)OC1c3ccc(O)cc3OCC21 (stereo not drawn) [Medicarpin] | 54.0 ppm | No activity (25 ppm) | 
 |  | COc1cc(O)c2c(=O)c(-c3ccc(O)c(O)c3)coc2c1 [Santal, reference compound] |  |  | IC50 inhibition of the lipolysis [1]: 1.92 ppm; effect on lipolysis (route iii), in words ([1]; own investigations): inhibition of lipolysis
 |  | O=c1c(-c2ccc(O)cc2)coc2cc(O)cc(O)c12 [genistein] |  |  | effect on differentiation of fat cells, in words (fat cells): inhibited or stimulated
 |  | COc1ccc(-c2coc3cc(O)c(OC)cc3c2=O)cc1O [odoratin] |  |  | phototoxic potential, in words [2]: notable phototoxic potential
 |  | cladastrin |  |  | phototoxic potential, in words [2]: notable phototoxic potential
